Results as given in patent publication US9539252B2, “Piperazine-substituted benzothiophene derivatives as antipsychotic agents” (OTSUKA PHARMACEUTICAL CO., LTD., priority 2011, dated 2017).

Assay: Solubility in oil (sesame oil, benzyl benzoate), visual observation
Conditions: benzyl benzoate, oil or lipid, thermodynamic from solid

solubility, > 100 mg/mL:
CCCCN(C)C(=O)OCn1c(=O)ccc2ccc(OCCCCN3CCN(c4cccc5sccc45)CC3)cc21 [Example 36, N-butyl-N-methylcarbamic acid 7-[4-(4-benzo[b]thiophen-4-ylpiperazin-1-yl)butoxy]-2-oxo-2H-quinolin-1-ylmethyl ester]
O=C(CCC(F)(F)F)OCN1C(=O)CCc2ccc(OCCCCN3CCN(c4cccc5sccc45)CC3)cc21 [Example 124, 4,4,4-trifluorobutyric acid 7-[4-(4-benzo[b]thiophen-4-ylpiperazin-1-yl)butoxy]-2-oxo-3,4-dihydro-2H-quinolin-1-ylmethyl ester]
COC(=O)CN(C)C(=O)OCn1c(=O)ccc2ccc(OCCCCN3CCN(c4cccc5sccc45)CC3)cc21 [Example 73, ({7-[4-(4-benzo[b]thiophen-4-ylpiperazin-1-yl)butoxy]-2-oxo-2H-quinolin-1-ylmethoxycarbonyl}methylamino)acetic acid methyl ester]
CCCC(C)C(=O)OCn1c(=O)ccc2ccc(OCCCCN3CCN(c4cccc5sccc45)CC3)cc21 (stereo not shown) [Example 94, 2-methylpentanoic acid 7-[4-(4-benzo[b]thiophen-4-ylpiperazin-1-yl)butoxy]-2-oxo-2H-quinolin-1-ylmethyl ester]
O=C(OCN1C(=O)CCc2ccc(OCCCCN3CCN(c4cccc5sccc45)CC3)cc21)C1CCC1 [Example 127, cyclobutanecarboxylic acid 7-[4-(4-benzo[b]thiophen-4-ylpiperazin-1-yl)butoxy]-2-oxo-3,4-dihydro-2H-quinolin-1-ylmethyl ester]
CN(Cc1ccccn1)C(=O)OCn1c(=O)ccc2ccc(OCCCCN3CCN(c4cccc5sccc45)CC3)cc21 [Example 152, N-methyl-N-pyridin-2-ylmethylcarbamic acid 7-[4-(4-benzo[b]thiophen-4-ylpiperazin-1-yl)butoxy]-2-oxo-2H-quinolin-1-ylmethyl ester]
CC(C)NC(=O)OCn1c(=O)ccc2ccc(OCCCCN3CCN(c4cccc5sccc45)CC3)cc21 [Example 117, N-isopropyl-carbamic acid 7-[4-(4-benzo[b]thiophen-4-ylpiperazin-1-yl)butoxy]-2-oxo-2H-quinolin-1-ylmethyl ester]
COC(=O)OCn1c(=O)ccc2ccc(OCCCCN3CCN(c4cccc5sccc45)CC3)cc21 [Example 163, carbonic acid 7-[4-(4-benzo[b]thiophen-4-ylpiperazin-1-yl)butoxy]-2-oxo-2H-quinolin-1-ylmethyl ester methyl ester]
CCCCCC(CCCCC)C(=O)OCN1C(=O)CCc2ccc(OCCCCN3CCN(c4cccc5sccc45)CC3)cc21 [Example 40, 2-pentylheptanoic acid 7-[4-(4-benzo[b]thiophen-4-ylpiperazin-1-yl)butoxy]-2-oxo-3,4-dihydro-2H-quinolin-1-ylmethyl ester]
CCCCCCCCCCCC(=O)OCN1C(=O)CC(C)(C)c2ccc(OCCCCN3CCN(c4cccc5sccc45)CC3)cc21 [Example 154, dodecanoic acid 7-[4-(4-benzo[b]thiophen-4-ylpiperazin-1-yl)butoxy]-4,4-dimethyl-2-oxo-3,4-dihydro-2H-quinolin-1-ylmethyl ester]
O=C(OCn1c(=O)ccc2ccc(OCCCCN3CCN(c4cccc5sccc45)CC3)cc21)C1CCC1 [Example 136, cyclobutanecarboxylic acid 7-[4-(4-benzo[b]thiophen-4-ylpiperazin-1-yl)butoxy]-2-oxo-2H-quinolin-1-ylmethyl ester]
CCCCCCCCCCCC(=O)OCOc1ccc2ccc(OCCCCN3CCN(c4cccc5sccc45)CC3)cc2n1 [Example 371, 7-[4-(4-benzo[b]thiophen-4-yl-piperazin-1-yl)-butoxy]-quinolin-2-yloxymethyl dodecanoate]
O=C(OCn1c(=O)ccc2ccc(OCCCCN3CCN(c4cccc5sccc45)CC3)cc21)C1CCOCC1 [Example 130, tetrahydropyran-4-carboxylic acid 7-[4-(4-benzo[b]thiophen-4-ylpiperazin-1-yl)butoxy]-2-oxo-2H-quinolin-1-ylmethyl ester]
CCCCOC(=O)OCN1C(=O)CCc2ccc(OCCCCN3CCN(c4cccc5sccc45)CC3)cc21 [Example 151, carbonic acid 7-[4-(4-benzo[b]thiophen-4-ylpiperazin-1-yl)butoxy]-2-oxo-3,4-dihydro-2H-quinolin-1-ylmethyl ester butyl ester]
C=CCCCCCCCCC(=O)OCN1C(=O)CCc2ccc(OCCCCN3CCN(c4cccc5sccc45)CC3)cc21 [Example 114, undec-10-enoic acid 7-[4-(4-benzo[b]thiophen-4-ylpiperazin-1-yl)butoxy]-2-oxo-3,4-dihydro-2H-quinolin-1-ylmethyl ester]
CCCCCCOC(=O)Oc1ccc2ccc(OCCCCN3CCN(c4cccc5sccc45)CC3)cc2n1 [Example 381, 7-[4-(4-benzo[b]thiophen-4-yl-piperazin-1-yl)-butoxy]-quinolin-2-yl hexyl carbonate]
O=C(OCN1C(=O)CCc2ccc(OCCCCN3CCN(c4cccc5sccc45)CC3)cc21)c1ccc2occc2c1 [Example 128, benzofuran-5-carboxylic acid 7-[4-(4-benzo[b]thiophen-4-ylpiperazin-1-yl)butoxy]-2-oxo-3,4-dihydro-2H-quinolin-1-ylmethyl ester]
CCCCCCCCCCCCCCCCCCNC(=O)OCn1c(=O)ccc2ccc(OCCCCN3CCN(c4cccc5sccc45)CC3)cc21 [Example 38, N-octadecylcarbamic acid 7-[4-(4-benzo[b]thiophen-4-ylpiperazin-3-yl)butoxy]-2-oxo-2H-quinolin-1-ylmethyl ester]
CCCCCC(=O)OCn1c(=O)ccc2ccc(OCCCCN3CCN(c4cccc5sccc45)CC3)cc21 [Example 58, hexanoic acid 7-[4-(4-benzo[b]thiophen-4-ylpiperazin-1-yl)butoxy]-2-oxo-2H-quinolin-1-ylmethyl ester]
C=CCCCCCCCCC(=O)OCn1c(=O)ccc2ccc(OCCCCN3CCN(c4cccc5sccc45)CC3)cc21 [Example 74, undec-10-enoic acid 7-[4-(4-benzo[b]thiophen-4-ylpiperazin-1-yl)butoxy]-2-oxo-2H-quinolin-1-ylmethyl ester]
O=C(OCN1C(=O)CCc2ccc(OCCCCN3CCN(c4cccc5sccc45)CC3)cc21)c1ccccc1 [Example 11, benzoic acid 7-[4-(4-benzo[b]thiophen-4-ylpiperazin-1-yl)butoxy]-2-oxo-3,4-dihydro-2H-quinolin-1-ylmethyl ester]
CC(=O)OCn1c(=O)ccc2ccc(OCCCCN3CCN(c4cccc5sccc45)CC3)cc21 [Example 61, acetic acid 7-[4-(4-benzo[b]thiophen-4-ylpiperazin-1-yl)butoxy]-2-oxo-2H-quinolin-1-ylmethyl ester]
O=C(OCN1C(=O)CCc2ccc(OCCCCN3CCN(c4cccc5sccc45)CC3)cc21)C1CCCC1 [Example 13, cyclopentanecarboxylic acid 7-[4-(4-benzo[b]thiophen-4-ylpiperazin-1-yl)butoxy]-2-oxo-3,4-dihydro-2H-quinolin-1-ylmethyl ester]

Same assay, conditions: sesame oil, oil or lipid, thermodynamic from solid

solubility, > 100 mg/mL:
CCCCCCCCCCCC(=O)OCN1C(=O)CC(C)(C)c2ccc(OCCCCN3CCN(c4cccc5sccc45)CC3)cc21 [Example 154, dodecanoic acid 7-[4-(4-benzo[b]thiophen-4-ylpiperazin-1-yl)butoxy]-4,4-dimethyl-2-oxo-3,4-dihydro-2H-quinolin-1-ylmethyl ester]
CCCCCCOC(=O)Oc1ccc2ccc(OCCCCN3CCN(c4cccc5sccc45)CC3)cc2n1 [Example 381, 7-[4-(4-benzo[b]thiophen-4-yl-piperazin-1-yl)-butoxy]-quinolin-2-yl hexyl carbonate]
